In BindingDB's records for doi:10.1080/14756360600889708 (University of Karachi, 2006):

Key:
Acetylcholinesterase = Acetylcholinesterase (Tetronarce californica, UniProt P04058); assay: Enzyme Inhibition Assay; conditions: 30 °C
Protocol: (§1) AChE and BChE inhibitory activities were measured in vitro by a modified spectrophotometric method. all the inhibition studies were performed using a Spectra Max microplate spectrophotometer from Molecular Devices, CA, USA.

[1] = target: Carboxylic ester hydrolase (Equus caballus, UniProt Q9N1N9); assay: Enzyme Inhibition Assay; conditions: 30 °C
Carboxylic ester hydrolase, sequence (Q9N1N9 whole entry): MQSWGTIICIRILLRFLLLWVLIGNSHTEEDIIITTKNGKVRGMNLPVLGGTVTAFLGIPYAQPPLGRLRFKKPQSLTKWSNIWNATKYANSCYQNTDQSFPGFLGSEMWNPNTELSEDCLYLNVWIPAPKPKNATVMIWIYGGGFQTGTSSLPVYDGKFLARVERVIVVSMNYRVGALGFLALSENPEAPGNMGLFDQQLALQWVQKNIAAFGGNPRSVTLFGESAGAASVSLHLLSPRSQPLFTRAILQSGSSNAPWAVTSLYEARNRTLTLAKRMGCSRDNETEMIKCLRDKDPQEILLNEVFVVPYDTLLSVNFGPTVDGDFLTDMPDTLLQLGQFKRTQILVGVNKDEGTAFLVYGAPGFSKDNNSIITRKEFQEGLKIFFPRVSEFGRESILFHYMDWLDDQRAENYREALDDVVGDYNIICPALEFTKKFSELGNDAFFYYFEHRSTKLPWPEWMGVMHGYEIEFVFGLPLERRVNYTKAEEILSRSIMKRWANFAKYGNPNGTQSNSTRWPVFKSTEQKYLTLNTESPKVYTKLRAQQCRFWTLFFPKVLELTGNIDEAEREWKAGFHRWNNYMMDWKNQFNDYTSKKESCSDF
Protocol: as §1

Acetylcholinesterase, sequence (P04058 whole entry): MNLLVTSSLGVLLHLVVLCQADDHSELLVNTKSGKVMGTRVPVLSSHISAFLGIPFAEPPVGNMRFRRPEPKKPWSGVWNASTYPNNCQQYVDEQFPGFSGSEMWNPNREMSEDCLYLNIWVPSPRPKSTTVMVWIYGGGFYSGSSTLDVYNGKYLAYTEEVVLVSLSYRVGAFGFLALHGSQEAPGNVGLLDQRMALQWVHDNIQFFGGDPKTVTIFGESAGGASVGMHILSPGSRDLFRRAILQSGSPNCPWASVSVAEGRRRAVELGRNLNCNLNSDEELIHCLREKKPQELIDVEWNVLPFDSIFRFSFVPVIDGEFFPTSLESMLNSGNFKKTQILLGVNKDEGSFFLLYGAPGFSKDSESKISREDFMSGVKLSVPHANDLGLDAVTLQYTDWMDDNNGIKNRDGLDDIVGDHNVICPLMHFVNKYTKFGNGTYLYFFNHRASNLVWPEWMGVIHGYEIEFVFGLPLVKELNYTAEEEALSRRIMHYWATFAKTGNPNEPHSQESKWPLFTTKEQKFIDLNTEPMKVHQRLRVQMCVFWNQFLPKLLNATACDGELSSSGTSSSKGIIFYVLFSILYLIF

| SMILES | Ki (Acetylcholinesterase) | Ki [1] |
| --- | --- | --- |
| COC(C)(C)[C@H]1Cc2c(n(C)c3ccccc3c2=O)O1 [Methyl isoplatydesmine, 4] | 30 µM | 19 µM |
| Cn1c2c(c(=O)c3ccccc31)C[C@@H](O)C(C)(C)O2 [Ribalinine, 3] | 30 µM | 70 µM |
| COc1ccc2c3c1O[C@H]1C[C@@H](O)C=C[C@@]31CCN(C)C2 [galantamine] |  | 32 µM |
